In US20230203060A1 (GENFLEET THERAPEUTICS (SHANGHAI) INC., priority 2020, published 2023) one finds IC50 data, which are given here for 26 compounds.

For test [1], the system named is phosphorylated ERK downstream of KRAS G12C in MIA PaCa2 cells. Nature of the test: Cell p-ERK detection experiment (HTRF) in MIA PaCa2. The format is cell-based, human. The conditions noted are these: Homo sapiens, MIA PaCa-2, 2 h, MIA PaCa2 cells, 2 hours with compound, Advance ERK phospho-T202/Y204 HTRF kit; read-out: p-ERK IC50. Summed up: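 Phospho-ERK (T202/Y204) measured by HTRF after 30 min lysis and 4 h antibody incubation in MIA PaCa2 (KRAS G12C) cells, seeded at 2.5E4 per well and treated 2 h with compounds in 3.16-fold steps, final DMSO 0.1%. IC50 from a four-parameter fit of percent inhibition relative to DMSO and blank wells.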

The target in a further test is T1, KRAS G12C (Homo sapiens, UniProt P01116, G12C).
T1 construct: purchased Reactionbiology
In words: KRAS G12C NEA-HTRF experiment (SOS1-catalyzed displacement of GDP by GTP). The format is biochemical. The gist of the method:
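His-tagged KRAS G12C preloaded with DY647-GDP was preincubated 15 min at 20 °C with compound, then exchanged with SOS1 (0.2 μM working solution) and GTP (200 μM working solution) for 2 h at 20 °C in the dark. HTRF 665/615 nm ratio with anti-His-Tb was normalised to T0 and no-compound controls; IC50 by four-parameter fit.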
A general note: In TR-FRET formats the signal depends on donor and acceptor labels being close together.

T1 sequence (P01116 1-188 isoform P01116-2 G12C): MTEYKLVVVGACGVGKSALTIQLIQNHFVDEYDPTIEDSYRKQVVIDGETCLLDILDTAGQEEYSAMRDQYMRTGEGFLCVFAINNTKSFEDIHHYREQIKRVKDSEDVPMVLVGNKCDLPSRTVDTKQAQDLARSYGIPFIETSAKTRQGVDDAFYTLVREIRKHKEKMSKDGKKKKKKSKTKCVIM

Usually IC50 stands for the point on the concentration scale where inhibition reaches its midpoint. As to `C=CC(=O)N1CCN2C(=O)c3c(N4C[C@H](N5CCN(C)CC5)CC4(C)C)nc(-c4c(F)cccc4Cl)c(Cl)c3OC[C@H]2C1` (single isomer, unassigned) [Z635-2], the IC50 was determined as 55 nM in test [1] and 113 nM at KRAS G12C.

For the compound `C=CC(=O)N1CCN2C(=O)c3c(N4C[C@H](N5CC(C#N)C5)CC4(C)C)nc(-c4ccccc4F)c(Cl)c3OC[C@H]2C1` (single isomer, unassigned) [Z637-1], the IC50 amounted to 1120 nM in test [1] and 343 nM on KRAS G12C.

As to `C=CC(=O)N1CCN2C(=O)c3c(N4C[C@@H](N5CC(C#N)C5)CC4(C)C)nc(-c4ccccc4F)c(Cl)c3OC[C@H]2C1` (single isomer, unassigned) [Z637-2], the IC50 turned out to be 68 nM in test [1] and 23.8 nM at KRAS G12C.

On to `C=CC(=O)N1CCN2C(=O)c3c(N4C[C@@H](N(C)C)CC4(C)C)nc(-c4ccccc4)c(Cl)c3OC[C@H]2C1` (single isomer, unassigned) [Z655-1], for which the IC50 in test [1] is 461 nM; on KRAS G12C, 406 nM.

Turning to `C=CC(=O)N1CCN2C(=O)c3c(N4C[C@@H](N(C)CCO)CC4(C)C)nc(-c4ccccc4F)c(Cl)c3OC[C@H]2C1` (single isomer, unassigned) [Z658-1], the 50% inhibitory concentration (IC50) in test [1] came out at 31 nM; at KRAS G12C it was 23.8 nM.

With `C=CC(=O)N1CCN2C(=O)c3c(N4C[C@H](N(C)CCO)CC4(C)C)nc(-c4ccccc4F)c(Cl)c3OC[C@H]2C1` (single isomer, unassigned) [Z658-2], the IC50 in test [1] amounted to 180 nM; at KRAS G12C, 142 nM.

In the case of `C=CC(=O)N1CCN2C(=O)c3c(N4C[C@@H](N(C)CC(F)F)CC4(C)C)nc(-c4ccccc4F)c(Cl)c3OC[C@H]2C1` (single isomer, unassigned) [Z659-1], the IC50 was 249 nM in test [1] and 77.2 nM at KRAS G12C.

Take `C=CC(=O)N1CCN2C(=O)c3c(N4CC(N(C)CC(F)F)CC4(C)C)nc(-c4ccccc4F)c(Cl)c3OCC2C1` (single isomer, unassigned) [Z659-2]: the IC50 in test [1] was determined as 22 nM; on KRAS G12C it was 9.3 nM.

Consider `C=CC(=O)N1CCN2C(=O)c3c(N4C[C@@H](N(C)CCF)CC4(C)C)nc(-c4ccccc4F)c(Cl)c3OC[C@H]2C1` (single isomer, unassigned) [Z660-1], for which the IC50 was 19 nM in test [1] and 11.3 nM on KRAS G12C.

As for `C=CC(=O)N1CCN2C(=O)c3c(N4C[C@@H](NC)CC4(C)C)nc(-c4ccccc4F)c(Cl)c3OC[C@H]2C1` (single isomer, unassigned) [Z661-1], the IC50 is 57 nM in test [1] and 33.5 nM at KRAS G12C.

Turning to `C=CC(=O)N1CCN2C(=O)c3c(N4C[C@@H](NCC(F)(F)F)CC4(C)C)nc(-c4ccccc4F)c(Cl)c3OC[C@H]2C1` (single isomer, unassigned) [Z662-1], the IC50 in test [1] amounted to 32.6 nM; on KRAS G12C, 23.4 nM.

Turning to `C=CC(=O)N1CCN2C(=O)c3c(N4CCOC[C@@H]4C)nc(-c4c(O)cccc4F)c(Cl)c3OC[C@H]2C1` [Z32], the IC50 turned out to be 80 nM in test [1] and 142 nM on KRAS G12C.

For `C=CC(=O)N1CCN2C(=O)c3c(N4CCOC(C)(C)C4)nc(-c4c(O)cccc4F)c(Cl)c3OC[C@H]2C1` [Z37, (6aR)-8-acryloyl-4-chloro-1-(2,2-dimethylmorpholino)-3-(2-fluoro-6-hydroxyphenyl)-6,6a,7,8,9,10-hexahydro-12H-pyrazino[2,1-c]pyrido[3,4-f][1,4]oxazepin-12-one], the results for the IC50 (in test [1]; on KRAS G12C) were 145 nM and 167 nM, respectively.

For `C=CC(=O)N1CCN2C(=O)c3c(N4CCC[C@@H]4C)nc(-c4c(O)cccc4F)c(Cl)c3OC[C@H]2C1` [Z49, (6aR)-8-acryloyl-1-((S)-2-methylpyrrolidin-1-yl)-4-chloro-3-(2-fluoro-6-hydroxyphenyl)-6,6a,7,8,9,10-hexahydro-12H-pyrazino[2,1-c]pyrido[3,4-f][1,4]oxazepin-12-one], the IC50 was 62 nM in test [1] and 66 nM on KRAS G12C.

For the compound `C=CC(=O)N1CCN2C(=O)c3c(N4CC(O)CC4(C)C)nc(-c4c(O)cccc4F)c(Cl)c3OC[C@H]2C1` (stereo partly drawn) [Z50, (6aR)-8-amyloyl-4-chloro-3-(2-fluoro-6-hydroxyphenyl)-1-(4-hydroxy-2,2-dimethylpyrrolidin-1-yl)-6,6a,7,8,9,10-hexahydro-12H-pyrazino[2,1-c]pyrido[3,4-f][1,4]oxazepin-12-one], the values for the IC50 (in test [1]; on KRAS G12C) were 28 nM and 21 nM, respectively.

For `C=CC(=O)N1CCN2C(=O)c3c(N4CCN(C)C[C@@H]4C)nc(-c4c(O)cccc4F)c(Cl)c3OC[C@H]2C1` [Z51, (6aR)-8-acryloyl-4-chloro-1-((S)-2,4-dimethylpiperazin-1-yl)-3-(2-fluoro-6-hydroxyphenyl)-6,6a,7,8,9,10-hexahydro-12H-pyrazino[2,1-c]pyrido[3,4-f][1,4]oxazepin-12-one], the half-maximal inhibitory concentration (IC50) came to 73 nM in test [1] and 142 nM on KRAS G12C.

In the case of `C=CC(=O)N1CCN2C(=O)c3c(N4CCCC45CC5)nc(-c4c(O)cccc4F)c(Cl)c3OC[C@H]2C1` [Z56, (6aR)-8-acryloyl-4-chloro-3-(2-fluoro-6-hydroxyphenyl)-1-(4-azaspiro[2.4]heptan-4-yl)-6,6a,7,8,9,10-hexahydro-12H-pyrazino[2,1-c]pyrido[3,4-f][1,4]oxazepin-12-one], the IC50 in test [1] turned out to be 129 nM; on KRAS G12C it was 85 nM.

Consider `C=CC(=O)N1CCN2C(=O)c3c(N4CCN(C)C[C@@H]4C)nc(-c4ccccc4F)c(Cl)c3OC[C@H]2C1` [Z407-1, (R)-8-acryloyl-4-chloro-1-((S)-2,4-dimethylpiperazin-1-yl)-3-(2-fluorophenyl)-6,6a,7,8,9,10-hexahydro-12H-pyrazino[2,1-c]pyrido[3,4-f][1,4]oxazepin-12-one], for which the results for the IC50 (in test [1]; at KRAS G12C) were 144 nM and 262 nM, respectively.

In the case of `C=CC(=O)N1CCN2C(=O)c3c(N4CC(O)CC4(C)C)nc(-c4ccccc4Cl)c(F)c3OC[C@H]2C1` (stereo partly drawn) [Z414-1, (6aR)-8-acryloyl-3-(2-chlorophenyl)-4-fluoro-1-(4-hydroxy-2,2-dimethylpyrrolidin-1-yl)-6,6a,7,8,9,10-hexahydro-12H-pyrazino[2,1-c]pyrido[3,4-f][1,4]oxazepin-12-one], the IC50 in test [1] came to 103 nM; at KRAS G12C, 86.6 nM.

Regarding `C=CC(=O)N1CCN2C(=O)c3c(N4CCN(C)C[C@@H]4C)nc(-c4c(F)cccc4OC)c(F)c3OC[C@H]2C1` [Z451, (6aR)-8-acryloyl-1-((S)-2,4-dimethylpiperazin-1-yl)-4-fluoro-3-(2-fluoro-6-methoxyphenyl)-6,6 a,7,8,9,10-hexahydro-12H-pyrazino[2,1-c]pyrido[3,4-f][1,4]oxazepin-12 (6 aH)-one], the results for the IC50 (in test [1]; at KRAS G12C) were 1480 nM and 3000 nM, respectively.

For `C=CC(=O)N1CCN2C(=O)c3c(N4CCN(C)C[C@@H]4C)nc(-c4c(O)cccc4Cl)c(Cl)c3OC[C@H]2C1` [Z452, (6aR)-8-acryloyl-4-chloro-3-(2-chloro-6-hydroxyphenyl)-1-((S)-2,4-dimethylpiperazin-1-yl)-6,6a,7,8,9,10-hexahydro-12H-pyrazino[2,1-c]pyrido[3,4-f][1,4]oxazepin-12-one], the IC50 in test [1] amounted to 34 nM; on KRAS G12C, 46.9 nM.

Consider `C=CC(=O)N1CCN2C(=O)c3c(N4C[C@@H](N(C)C)CC4(C)C)nc(-c4ccccc4F)c(Cl)c3OC[C@H]2C1` [Z453-1, (R)-8-acryloyl-4-chloro-1-((S)-4-(dimethylamino)-2,2-dimethylpyrrolidin-1-yl)-3-(2-fluorophenyl)-6,6a,7,8,9,10-hexahydro-12H-pyrazino[2,1-c]pyrido[3,4-f][1,4]oxazepin-12-one], for which the IC50 in test [1] came to 116 nM; on KRAS G12C it was 43.6 nM.

`C=CC(=O)N1CCN2C(=O)c3c(N4CC(N5CCN(C)CC5)CC4(C)C)nc(-c4ccccc4F)c(Cl)c3OC[C@H]2C1` (stereo partly drawn) [Z454, (6aR)-8-acryloyl-4-chloro-1-(2,2-dimethyl-4-(4-methylpiperazin-1-yl)pyrrolidin-1-yl)-3-(2-fluorophenyl)-6,6a,7,8,9,10-hexahydro-12H-pyrazino[2,1-c]pyrido[3,4-f][1,4]oxazepin-12-one]: the IC50 was determined as 24 nM in test [1] and 19.8 nM on KRAS G12C.

Take `C=CC(=O)N1CCN2C(=O)c3c(N4CCN(C)C[C@@H]4C)nc(-c4c(F)cccc4C(F)F)c(Cl)c3OC[C@H]2C1` [Z456, (6aR)-8-acryloyl-4-chloro-3-(2-(difluoromethyl)-6-fluorophenyl)-1-((S)-2,4-dimethylpiperazin-1-yl)-6,6a,7,8,9,10-hexahydro-12H-pyrazino[2,1-c]pyrido[3,4-f][1,4]oxazepin-12-one]: the IC50 in test [1] came to 77 nM; on KRAS G12C it was 147 nM.

`C=CC(=O)N1CCN2C(=O)c3c(NC(C)(C)C)nc(-c4ccccc4F)c(Cl)c3OC[C@H]2C1` [Z457, (R)-8-acryloyl-1-(tert-butylamino)-4-chloro-3-(2-fluorophenyl)-6,6a,7,8,9,10-hexahydro-12H-pyrazino[2,1-c]pyrido[3,4-f][1,4]oxazepin-12-one]: the IC50 in test [1] is 397 nM; at KRAS G12C, 133 nM.

With `C=CC(=O)N1CCN2C(=O)c3c(N4CC(C(=O)O)CC4(C)C)nc(-c4c(O)cccc4F)c(Cl)c3OC[C@H]2C1` (stereo partly drawn) [Z458, 1-((6aR)-8-acryloyl-4-chloro-3-(2-fluoro-6-hydroxyphenyl)-12-oxo-6,6a,7,8,9,10-hexahydro-12H-pyrazino[2,1-c]pyrido[3,4-f][1,4]oxazepin-1-yl)-5,5-dimethylpyrrolidine-3-carboxylic acid], the values for the IC50 (in test [1]; on KRAS G12C) were 6520 nM and 13.9 nM, respectively.
